This is an account of results in patent US10137239B2, “Systems and methods for monitoring time based photo active agent delivery or photo active marker presence” (Avedro, Inc., priority 2011, dated 2018).

The assay is described as follows: Effect of a quenching agent on Riboflavin fluorescence in the eye after Riboflavin pre-soak. On the set-up: species or system porcine. The note with it: 1% ascorbic acid drops for 5, 10, 15 min after 30 min pre-soak with 0.1% Riboflavin-5-phosphate in saline; control distilled water; FIGS. 14, 15A, 15B. As to the method:
In an experimental setup, the Galilei Dual Scheimpflug Analyzer from Ziemer was used to perform experiments to detect the presence of Riboflavin in porcine corneas through a filter in front of one of the detectors in the Scheimpflug analyzer. The Dual Scheimpflug Analyzer has two detectors that rotate 180° taking several spokes (ranging from 16 to 60 spokes) of the corneal tissue illuminated by 470 nm light through a slit lamp aperture.
A Straw colored filter (Cinegel, Rosco) is used to filter the exciting light (i.e., the 470 nm light), while allowing the fluorescence (i.e., the 525 nm light) to reach the detector. This is illustrated by the graph shown in FIG. 11B, which illustrates the transmission spectrum for the Straw colored filter utilized.
However, as discussed above, several different substances can be utilized as quenching agents to inhibit the photo-activation of a cross-linking agent, or to degrade the cross-linking agent such that it is no longer photo-active. […] After the pre-soak, the eye was placed in front of the Scheimpflug analyzer and another image (or series of images) was captured to determine the distribution of Riboflavin based on the detected pattern of fluorescence within the cornea. […]
To analyze the effects described above, images from the Scheimpflug image capture system were exported and analyzed. […]

Regarding `O=C1O[C@H]([C@@H](O)CO)C(O)=C1O` [ascorbic acid], the “maximum fluorescence intensity observed with the Scheimpflug imager” value was “considerably decreases the maximum fluorescence intensity”.
